Experiments:
[1] = Dispersive surface energy by inverse gas chromatography (IGC); assay type: physicochemical; conditions: IGC at 25° C., 0% RH, FIG. 1
Experimental: The surface energies were measured by inverse gas chromatography (IGC). All analyses were carried out using the SMS-iGC 2000 and the SMS-iGC v1.3 standard analysis suite and SMS-iGC v1.21 advanced analysis suite of macros. A flame ionization detector (FID) was used to determine the retention times. The samples were stored in a cold (˜5° C.), dry environment until run on the IGC. For all experiments, the powders were packed into a silanized glass column (300 mm long by 4 mm diameter) using the SMS Column Packing Accessory. All columns were analyzed 3 times sequentially to check for irreversible chemisorption effects and equilibrium after preconditioning.
In this study, the columns were pre-treated for 2 hours at 25° C. and 0% RH in a helium carrier gas to condition the sample. Then, the surface energy measurements were performed at 25° C. (3 times sequentially with a 2-hour conditioning between runs). All experiments were carried out at 10 sccm total flow rate of helium, and injection vapor concentration of 0.03 P/0 for all elutants.

[2] = cited from earlier work

| Compound | dispersive surface energy [1] [mJm^−2] | dispersive surface energy, values reported in the literature [2] [mJm^−2] |
| --- | --- | --- |
| O.OC[C@H]1O[C@@H](O[C@H]2[C@H](O)[C@@H](O)[C@@H](O)O[C@@H]2CO)[C@H](O)[C@@H](O)[C@H]1O [Meggle D30 reference, α-lactose monohydrate] | 41.8 | 41 |
| magnesium stearate | 42.1 | 41 |
